The molecules below were run on Huh7 cells containing HCV replicons with an integrated luciferase reporter gene (assay: HCV Replicon Assay (luciferase reporter)). Conditions: Hepatitis C virus, Huh-7, 48 h, read-out: EC50 nM.
Type: cell-based
Method: Huh7 cells containing HCV replicons with an integrated luciferase reporter gene are maintained at 37° C. in 5% CO2 in Dulbecco's modified Eagle's medium (DMEM; Mediatech, Herndon, Va.) containing 10% heat-inactivated fetal bovine serum (FBS; Mediatech, Herndon, Va.), 2 mM L-glutamine (Cambrex Bioscience, Walkersville, Md.), 1% non essential amino acids (Lonza, Walkersville, Md.), 50 IU/mL penicillin (Mediatech, Herndon, Va.), […] streptomycin (Mediatech, Herndon, Va.) and 0.5 mg/mL G418 (Promega, Madison, Wis.). Cells are sub-divided 1:3 or 4 every 2-3 days.
24 h prior to the assay, Huh7 cells containing sub-genomic HCV replicons are collected, counted, and plated in Nunclon 96-well tissue culture plates (ThermoFisher, Rochester, N.Y.) at 5000 cells/well in […] standard maintenance medium (above) and incubated in the conditions above. To initiate the assay, culture medium is removed, and replaced with […] maintenance media lacking G418. Test compounds are serially diluted three-fold in dimethyl sulfoxide (DMSO) in two duplicate rows for each EC50 determination. These compound solutions are diluted ten-fold in DMEM lacking serum and G418. […] of these compound solutions in media are added to duplicate tissue culture plates. The final volume is 100 μL with a DMSO concentration of 1%. Compound concentrations are adjusted to appropriately define a dose response curve. Typical dilution series range from […] to 1.69 nM final concentrations to 1 nM to 16.9 fM final. Plates are incubated at 37° C. for approximately 48 hr.
Following incubation, media is removed from one of the two duplicate plates and replicon-reporter luciferase activity is measured using a Bright-Glo luciferase assay kit (Promega, Madison, Wis.) according to manufacturer's instructions. Semi-log plots of luciferase activity versus the logarithm of compound concentration are fit to a 4-parameter logistic function using XLfit software (IDBS Inc., Guildford, UK) to determine EC50.

Structure (SMILES) | EC50 [nM]
COC(=O)N[C@H](C(=O)N1CCC[C@H]1C(=O)Nc1ccc2cc(-c3ccccc3)ccc2c1)C(C)C [Compound 502] | > 100

Same assay, conditions: Hepatitis C virus, Huh-7; Huh7 sub-genomic HCV replicon, luciferase activity, approximately 48 hr incubation; read-out: EC50

Structure (SMILES) | EC50 [nM]
COC(=O)N[C@H](C(=O)N1CCC[C@H]1c1nc2ccc(-c3ccc(-c4ccc5nc([C@@H]6CCCN6C(=O)[C@@H](NC(=O)OC)c6ccc(F)cc6)[nH]c5c4)cc3)cc2[nH]1)c1ccc(F)cc1 [Compound 422] | < 10
COC(=O)N[C@H]1CC[C@H]2CC[C@@H](C(=O)Nc3ccc(/C=C/c4ccc(NC(=O)[C@@H]5CC[C@@H]6CC[C@H](NC(=O)OC)C(=O)N65)cc4)cc3)N2C1=O [Compound 802] | > 100
COC(=O)N[C@H]1CC[C@H]2CC[C@@H](c3nc(-c4ccc(-c5ccc(-c6c[nH]c([C@]7(C)CCCN7C(=O)[C@@H](NC(=O)OC)C(C)C)n6)cc5)cc4)c[nH]3)N2C1=O [Compound 805] | 10 to 100
COC(=O)N[C@H]1CC[C@H]2CC[C@@H](c3nc(-c4ccc(-c5ccc(-c6c[nH]c([C@@H]7CCCN7C(=O)[C@@H](NC(=O)OC)C(C)C)n6)cc5)cc4)c[nH]3)N2C1=O [Compound 803] | < 10
COC(=O)NC(C(=O)N1CCC[C@H]1c1nc(-c2ccc(-c3ccc(-c4c[nH]c(N5CCCN5C(=O)[C@@H](NC(=O)OC)C(C)C)n4)c4scnc34)c3ncsc23)c[nH]1)C(C)C (stereo partly drawn) [Compound 603] | < 10
COC(=O)N[C@H]1CC[C@@H]2CC[C@@H](c3nc(-c4ccc(-c5ccc(-c6c[nH]c([C@@H]7CCCN7C(=O)[C@@H](NC(=O)OC)C(C)C)n6)cc5)cc4)c[nH]3)N2C1=O [Compound 804] | < 10
COC(=O)N[C@H](C(=O)N1CCC[C@H]1c1nc(-c2ccccc2)c[nH]1)C(C)C [Compound 504] | > 100
COc1ccc2cc(-c3c[nH]c([C@@H]4CCCN4C(=O)OC(C)(C)C)n3)ccc2c1 [Compound 505] | > 100
COC(=O)N[C@H](C(=O)N1CCC[C@H]1c1nc(-c2ccc(-c3ccc(-c4c[nH]c([C@]5(C)CCCN5C(=O)[C@@H](NC(=O)OC)C(C)C)n4)c4c3CCC4)c3c2CCC3)c[nH]1)C(C)C [Compound 605] | < 10
COC(=O)N[C@H](C(=O)N1CCC[C@H]1c1nc(-c2ccc(-c3ccc(-c4c[nH]c([C@@H]5CCCN5C(=O)[C@@H](NC(=O)OC)C(C(F)(F)F)C(F)(F)F)n4)cc3)cc2)c[nH]1)C(C(F)(F)F)C(F)(F)F [Compound 423] | < 10
COC(=O)N[C@H]1CCC[C@@H]2CC[C@@H](c3nc(-c4ccc(-c5ccc(-c6c[nH]c([C@@H]7CCCC7C(=O)[C@@H](NC(=O)OC)C(C)C)n6)cc5)cc4)c[nH]3)N2C1=O (stereo partly drawn) [Compound 806] | < 10
COC(=O)N[C@H](C(=O)N1CCC[C@H]1c1nc(-c2ccc(-c3ccc(-c4c[nH]c([C@@H]5CCCN5C(=O)[C@@H](NC(=O)OC)C(C)C)n4)c4ocnc34)c3ncoc23)c[nH]1)C(C)C [Compound 602] | < 10
COC(=O)N[C@H](C(=O)N1CCC[C@H]1C(=O)NCc1ccc(-c2ccc(-c3c[nH]c([C@@H]4CCCN4C(=O)[C@@H](NC(=O)OC)C(C)C)n3)cc2)cc1)C(C)C [Compound 506] | < 10
COC(=O)N[C@H](C(=O)N1CCC[C@H]1c1nc(-c2ccc(-c3ccc(-c4c[nH]c([C@@H]5CCCN5C(=O)[C@@H](NC(=O)OC)c5cccc(F)c5)n4)cc3)cc2)c[nH]1)c1cccc(F)c1 [Compound 424] | < 10
COC(=O)N[C@H](C(=O)N1CCC[C@H]1C(=O)OCC(=O)c1ccc(N2CCN(Cc3ccccc3)CC2)cc1)C(C)C [Compound 501] | > 100
COC(=O)N[C@H]1CC[C@H]2CC[C@@H](c3nc(-c4ccc(-c5ccc(-c6c[nH]c([C@@H]7CC[C@@H]8CC[C@H](NC(=O)OC)C(=O)N87)n6)cc5)cc4)c[nH]3)N2C1=O [Compound 801] | > 100
COC(=O)N[C@H](C(=O)N1CCC[C@H]1c1nc(-c2ccc(-c3ccc(-c4c[nH]c([C@@H]5CCCN5C(=O)[C@@H](NC(=O)OC)c5ccc(F)cc5)n4)cc3)cc2)c[nH]1)c1ccc(F)cc1 [Compound 421] | < 10
COC(=O)N[C@H](C(=O)N1CCC[C@@]1(C)c1nc(-c2ccc(-c3ccc(-c4c[nH]c([C@]5(C)CCCN5C(=O)[C@@H](NC(=O)OC)C(C)C)n4)c4c3CCC4)c3c2CCC3)c[nH]1)C(C)C [Compound 604] | < 10
COC(=O)N[C@H]1CCC[C@H]2CC[C@@H](c3nc(-c4ccc(-c5ccc(-c6c[nH]c([C@@H]7CCCN7C(=O)[C@@H](NC(=O)OC)C(C)C)n6)cc5)cc4)c[nH]3)N2C1=O [Compound 807] | < 10
COC(=O)N[C@H](C(=O)N1CCC[C@H]1c1nc(-c2ccc(-c3ccc(-c4c[nH]c([C@@H]5CCCN5C(=O)[C@@H](NC(=O)OC)C(C)C)n4)c4c3CCC4)c3c2CCC3)c[nH]1)C(C)C [Compound 601] | < 10

From patent publication US20110312996A1, “NOVEL INHIBITORS OF HEPATITIS C VIRUS REPLICATION” (priority 2010, published 2011)
